Experimental data as given in paper PMC7017353, “Delineating the Molecular Basis of the Calmodulin–bMunc13-2 Interaction by Cross-Linking/Mass Spectrometry—Evidence for a Novel CaM Binding Motif in bMunc13-2” (Cells, 2020).
Where a SMILES comes first, the peptide text is derived from it.

Test system: recombinant CaM
Experiment: Photoaffinity labeling (PAL)-based competition assay
Format: binding
Details: photoprobe segment-C-Bpa 5 µM, CaM 5 µM, 200 µM Ca2+, SDS-PAGE and MALDI-TOF-MS; for suppression of photoadduct formation (in words): competitor up to 50-fold molar excess; for molar excess of competitor for complete suppression of photoadduct formation (full displacement of photoprobe): competitor 0–250 µM, 2 h RT
Experimental: Photoreactive peptides were synthesized by Fmoc chemistry using the amino acid derivative Fmoc-para-benzoylphenylalanine (Bpa, Novabiochem). Photoaffinity labeling (PAL)-based competition experiments with recombinant CaM were performed and analyzed as described previously. Briefly, CaM (5 µM) and segment-C-Bpa (5 µM) or segment-CS-Bpa (5 µM) were incubated in 50 mM HEPES (pH 7.2), 150 mM KCl, 5 mM DTT for 2 h at RT in the dark with (200 µM Ca^2+) or without (2 mM EGTA) calcium, and in the presence of increasing concentrations (0–250 μM) of competitor peptides. Following UV irradiation, photoadduct formation was visualized and quantified by SDS-PAGE and linear matrix-assisted laser desorption/ionization–time-of-flight–mass spectrometry (MALDI-TOF-MS).

Compound	suppression of photoadduct formation (in words)	molar excess of competitor for complete suppression of photoadduct formation (full displacement of photoprobe)
703KLSLEQVCAETIYLNKCINNDKNVLREKRLRQKKLLQELV742 [Segment F723D, segment-C variant with F723 exchanged to aspartic acid]	not able to displace segment-C-Bpa at all	–
719 CINNFKNVLREKRLRQKKLLQELV 742 [segment-CS]	could not suppress photoadduct formation	> 50 fold molar excess
719CINNFKNVLREKRLRQKKLLQELVQTASHLSVED742 [segment-CL]	could not suppress photoadduct formation	> 50 fold molar excess
CC[C@H](C)[C@H](NC(=O)[C@H](CS)NC(=O)[C@H](CCCCN)NC(=O)[C@H](CC(N)=O)NC(=O)[C@H](CC(C)C)NC(=O)[C@H](Cc1ccc(O)cc1)NC(=O)[C@@H](NC(=O)[C@@H](NC(=O)[C@H](CCC(=O)O)NC(=O)[C@H](C)NC(=O)[C@H](CS)NC(=O)[C@H](CC(=O)O)NC(=O)[C@H](CCC(N)=O)NC(=O)[C@H](CCC(=O)O)NC(=O)[C@H](CC(C)C)NC(=O)[C@H](CO)NC(=O)[C@H](CC(C)C)NC(=O)[C@H](CCCCN)NC(C)=O)[C@@H](C)O)[C@@H](C)CC)C(=O)N[C@@H](CC(N)=O)C(=O)N[C@@H](CC(N)=O)C(=O)N[C@@H](Cc1ccccc1)C(=O)N[C@@H](CCCCN)C(=O)N[C@@H](CC(N)=O)C(=O)N[C@H](C(=O)N[C@@H](CC(C)C)C(=O)N[C@@H](CCCNC(=N)N)C(=O)N[C@@H](CCC(=O)O)C(=O)N[C@@H](CCCCN)C(=O)N[C@@H](CCCNC(=N)N)C(=O)N[C@@H](CC(C)C)C(=O)N[C@@H](CCCNC(=N)N)C(=O)N[C@@H](CCC(N)=O)C(=O)N[C@@H](CCCCN)C(=O)N[C@@H](CCCCN)C(=O)N[C@@H](CC(C)C)C(=O)N[C@@H](CC(C)C)C(=O)N[C@@H](CCC(N)=O)C(=O)N[C@@H](CCC(=O)O)C(=O)N[C@@H](CC(C)C)C(=O)N[C@H](C(N)=O)C(C)C)C(C)C [Segment V709D] (Ac-KLSLEQDCAETIYLNKCINNFKNVLREKRLRQKKLLQELV-NH2; N-terminus and C-terminus assumed)	–	> 50 fold molar excess
